Results: patent US8496928B2, “Method for preventing and treating cardiovascular diseases with BRCA1” (priority 2008, dated 2013)

Experiments:
[1] = test system: rat neonatal ventricular cardiomyocytes (NRVMs); assay: Cardiomyocyte apoptosis, AnnexinV-FITC/PI flow cytometry and cleaved caspase-3 western blot; assay type: cell-based
Protocol: In FIG. 5A apoptosis in control, BRCA1-overexpressing, doxorubicin-treated and doxorubicin-treated-BRCA1-overexpressing neonatal rat ventricular cardiomyocytes (NRVCM) was assessed by Annexin V-FITC and propidium iodide staining coupled with flow cytometry. Quadrants S1, S2, S3 and S4 respectively represent necrotic, late apoptotic, viable live and early apoptotic NRVCM. FIG. 5B is a representative western blot of cleaved caspase-3 and α-actin proteins in NRVCM infected with either 10 MOI Ad-hBRCA1 or Ad-null vector for 48 hours before being exposed to 2 μM doxorubicin for 24 hours. Data are expressed as mean±SD. n=3. *P<0.05 vs untreated control group. †P<0.01 vs doxorubicin group.
The effect of pifithrin-α on doxorubicin-induced cardiomyocyte apoptosis, with or without overexpression of BRCA1 was examined. […]
BRCA-1 induced gain of function and protection against genotoxic and oxidative stress-induced apoptosis was also examined in vitro. […] Cardiomyocytes were incubated with the virus (human BRCA1 or GFP) for 48 hours after which expression of human BRCA1 or GFP were determined. Expression of BRCA1 was analyzed by real-time PCR and western blotting (see FIGS. 4A and 4B) and expression of GFP was analyzed by live cell video microscopy. […] Based on this observation, 10 MOI was determined to be the best of the three tested concentrations of the adenoviral construct. […]

HUVECs = assay: HUVEC apoptosis assays (Annexin V-FITC/PI flow cytometry, cleaved caspase-3, DNA fragmentation); assay type: cell-based, human; settings: ad-null infected HUVECs, 2 μM doxorubicin 24 hours
Protocol: In FIG. 23A ad-null or ad-BRCA1 infected HUVECs were treated with TNFα (20 ng/ml) for 24 hours. Cells were harvested for Annexin V-FITC and Propidium Iodide staining followed by flow cytometry. Total apoptotic cells are shown as mean±SD (n=3 in triplicate, **p<0.01). In FIG. 23B, HUVECs were treated with either siBRCA1 (10 nM) or scrambled siRNA (10 nM) for 24 hours. BRCA1-silenced and control HUVECs were treated with TNFα (20 ng/ml), stained with Annexin V-FITC and Propidium Iodide, and analyzed by flow cytometry. The percentage of total apoptotic cells are presented as mean±SD (n=3 in triplicate, **p<0.01). […] Data was calculated as the percentage of total apoptotic cells and presented as mean±SD (n=3 in triplicate, **p<0.01).
FIG. 31 is a bar graph showing protection of HUVECs against doxorubicin-induced apoptosis by BRCA1 overexpression. […] Data was calculated as the percentage of total apoptotic cells and presented as mean±SD (n=3 in triplicate, *p<0.01 vs. Ad-null group, †p<0.01 vs. Ad-null+2 μM Dox group). […]
Human umbilical vein endothelial cells (HUVECs) were purchased from Cambrex and cultured in MCDB-131 complete medium (Cambrex Corporation). […] These concentrations were determined from pilot optimization studies. […]
Apoptotic and necrotic cell death were assessed in ad-BRCA1 and ad-null infected HUVECs by flow cytometry coupled with the BD Annexin V-FITC Apoptosis Detection Kit. […]

p53 = assay: Western blot for p53 and phospho-p53 in cultured cardiomyocytes; assay type: cell-based, rat; settings: NRVMs
Protocol: GAPDH was used as loading control. Phospho-p53 antibodies were directed against serine 15 of p53 protein.
Cardiomyocytes were infected with 10MOI of a replication deficient adenoviral vector containing the CMV promoter and either human BRCA1 or a null vector (human Adenovirus Type5 dE1/E3, Vector Biolabs, USA). Following 48 hours incubation, cardiomyocytes were treated with 21 μM of doxorubicin or 50 μM of H2O2. The inhibitor of p53, pifithrin-α (10 μm, Sigma Aldrich, USA) was added 2 hrs prior to the addition of doxorubicin or hydrogen peroxide. After 24 hours, cardiomyocytes were either trypsinized and collected for flow cytometry or harvested for protein and RNA extraction.

[2] = test system: BRCA1 and p53 interaction; assay: Co-immunoprecipitation of BRCA1 and p53 in cardiomyocytes; assay type: cell-based, rat; settings: agent alone
Protocol: BRCA1 physically interacts with p53 in order to regulate p53 activity in a context dependent manner. Proteins were extracted after treatment and equal amounts (100 μg) of lysates were resolved by SDS PAGE.
Experiments were performed to access the interaction of BRCA1 with p53 in cardiomyocytes. […] Additionally, doxorubicin treatment, in the presence of overexpressing BRCA1 strengthened this association (lane 4, FIG. 6).
For analysis of physical interaction between BRCA1 and p53, cardiomyocytes were maintained and treated in 6-cm culture-dishes. After adenoviral and/or stress treatments, cells were scraped and suspended in 100 μL of RIPA buffer. The total cell lysate was obtained after homogenization and centrifugation at 14,000 g for 30 minutes at 4° C. Protein concentration was determined by the Bradford assay. Aliquots of each fraction (100 μg protein for total cell lysate) were incubated with either 0.5 μg of anti-p53 mouse monoclonal antibody (Cell Signaling Technology, USA) or with 0.5 μg of anti-BRCA1 (Santa Cruz Biotechnology, USA) for 1 hour at 4° C. Addition of protein A-Sepharose (Santa Cruz Biotechnology) and incubation for 16 hours at 4° C. was followed by centrifugation and repetitive washing of the Sepharose beads. […]

Wild-type mice = assay: Doxorubicin-induced cardiac dysfunction in mice, echocardiography; settings: doxorubicin 10 mg/kg i.p.; echocardiography day 3 and day 7
Protocol: Left ventricular function was assessed by echocardiography measuring percent systolic ejection fraction 3 days (FIG. 3A) or 7 days (FIG. 3B) after administration of vehicle, Ad-null vector (40 μl of 10^10 PFU, i.v.), Ad-GFP (40 μl of 10^10 PFU, i.v.), doxorubicin (10 mg/kg, i.p.) or doxorubicin (10 mg/kg, i.p.) with Ad-hBRCA1 (40 μl of 10^10 PFU, i.v.). Left ventricular function was also assessed by measuring fractional shortening values 3 days (FIG. 3C) after administration of vehicle, Ad-null vector (40 μl of 10^10 PFU, i.v.), Ad-GFP (40 μl of 10^10 PFU, i.v.), doxorubicin (10 mg/kg, i.p.) or doxorubicin (10 mg/kg, i.p.) with Ad-hBRCA1 (40 μl of 10^10 PFU, i.v.). *P<0.01 vs corresponding PBS group. †P<0.01 vs corresponding doxorubicin group. # p<0.01 vs. PBS+ad-GFP, ## p<0.001 vs. Dox+ad-BRCA1. n=3 for PBS and GFP groups; n=7 for doxorubicin and doxorubicin-BRCA1 groups. […]
Double-blinded echocardiography was performed on the doxorubicin- and adenoviral vectors-treated mice 3 days and 7 days post-treatment. […] End-diastolic posterior LV wall thickness, LV end-diastolic (LVEDD) and end-systolic LV dimension (LVESD) were measured. During diastole, LV dimension and wall thickness were measured from the maximum chamber cavity; during systole, they were measured during maximum anterior motion of the posterior wall. […]

## Cc1ccc(C(=O)Cn2c3c(sc2=N)CCCC3)cc1 [PFT-α, pifithrin-α]
[1]; BRCA1-overexpressing cardiomyocytes treated with doxorubicin and PFT-α
  number of apoptotic cardiomyocytes: no further reduction
[1]; cardiomyocytes treated with doxorubicin, PFT-α 10 μm added 2 hrs prior, vs doxorubicin only
  number of apoptotic cells: significant reductions

## COc1cccc2c1C(=O)c1c(O)c3c(c(O)c1C2=O)C[C@@](O)(C(=O)CO)C[C@@H]3O[C@H]1C[C@H](N)[C@H](O)[C@H](C)O1 [doxorubicin]
HUVECs
  apoptosis: prevalent
p53; agent on its own
  p53 level: upregulated p53
p53; doxorubicin alone
  serine-15 phosphorylation of p53: activated
[2]
  BRCA1 and p53 association: decline
Wild-type mice
  cardiac function (percent systolic ejection fraction, fractional shortening): impairment in cardiac function
